This passage reports T/C results from PubChem BioAssay AID328 (DTP/NCI, 2004).

Several values for one entry are separate records, joined by “and”; a condition that tells them apart may be missing. Identical values can stand only once. Inconclusive results and toxic doses are left out.

This experiment relates to BDF1 mice, P388 leukemia ip, median survival T/C. In words: NCI In Vivo Anticancer Drug Screen. Data for tumor model P388 Leukemia (intraperitoneal) in B6D2F1 (BDF1) mice. The conditions noted are these: endpoint: median survival time, higher = longer survival. The method, boiled down:
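Mice carrying the transplantable tumour receive compound or vehicle. Survival is followed in each arm, and the treated measure is divided by the vehicle measure.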

Where [1] appears, read: dose: 100.0 mg/kg/injection, schedule: Q04DX003 (ip), vehicle: Klucel (hydroxypropylcellulose) (HPC).
Setting [2] is: dose: 200.0 mg/kg/injection, schedule: Q04DX003 (ip), vehicle: Klucel (hydroxypropylcellulose) (HPC).
The mark [3] stands for this setting: dose: 4.0 mg/kg/injection, schedule: Q01DX009 (ip), vehicle: saline with Tween-80.
[4] abbreviates: dose: 12.5 mg/kg/injection, schedule: Q04DX003 (ip), vehicle: saline with Tween-80.
Setting [5] is: dose: 25.0 mg/kg/injection, schedule: Q04DX003 (ip), vehicle: saline with Tween-80.

With `N=[N+]=CC(=O)CCC(NC(=O)C(CCC(=O)C=[N+]=N)NC(=O)CCC(N)C(=O)O)C(=O)O` (configuration not stated), the T/C is, setting by setting: (dose: 0.1 mg/kg/injection, schedule: Q01DX009 (ip), vehicle: Klucel (hydroxypropylcellulose) (HPC)) 88 % of control; (dose: 0.2 mg/kg/injection, schedule: Q01DX009 (ip), vehicle: Klucel (hydroxypropylcellulose) (HPC)) 92 % of control; (dose: 0.2 mg/kg/injection, schedule: Q01DX009 (ip), vehicle: water) 163 % of control; (dose: 0.2 mg/kg/injection, schedule: Q01DX010 (ip), vehicle: other) 170 % of control; (dose: 0.3 mg/kg/injection, schedule: Q01DX009 (ip), vehicle: water) 109 % of control; (dose: 0.4 mg/kg/injection, schedule: Q01DX009 (ip), vehicle: Klucel (hydroxypropylcellulose) (HPC)) 94 % of control. Also, the T/C is 150 % of control (dose: 0.4 mg/kg/injection, schedule: Q01DX009 (ip), vehicle: water); 210 % of control (dose: 0.4 mg/kg/injection, schedule: Q01DX010 (ip), vehicle: other); 172 % of control (dose: 0.4 mg/kg/injection, schedule: Q01DX010 (ip), vehicle: water); 86 % of control (dose: 0.5 mg/kg/injection, schedule: Q01DX009 (ip), vehicle: water); 90 % of control (dose: 0.6 mg/kg/injection, schedule: Q01DX009 (ip), vehicle: water); 120 % of control (dose: 0.6 mg/kg/injection, schedule: Q01DX010 (ip), vehicle: other). For the same molecule, the T/C is, setting by setting: (dose: 0.6 mg/kg/injection, schedule: Q01DX010 (ip), vehicle: water) 109 % of control and 110 % of control; (dose: 0.8 mg/kg/injection, schedule: Q01DX009 (ip), vehicle: Klucel (hydroxypropylcellulose) (HPC)) 102 % of control; (dose: 0.8 mg/kg/injection, schedule: Q01DX010 (ip), vehicle: other) 110 % of control; (dose: 0.8 mg/kg/injection, schedule: Q01DX010 (ip), vehicle: water) 100 % of control; (dose: 1.0 mg/kg/injection, schedule: Q01DX010 (ip), vehicle: water) 90 % of control; (dose: 1.6 mg/kg/injection, schedule: Q01DX009 (ip), vehicle: Klucel (hydroxypropylcellulose) (HPC)) 97 % of control. Moreover, the T/C is 163 % of control (dose: 2.5 mg/kg/injection, schedule: Q02DX005 (oral), vehicle: other); 159 % of control (dose: 5.0 mg/kg/injection, schedule: Q02DX005 (oral), vehicle: other); 154 % of control (dose: 7.5 mg/kg/injection, schedule: Q04DX003 (ip), vehicle: water); 177 % of control (dose: 10.0 mg/kg/injection, schedule: Q02DX005 (oral), vehicle: other); 172 % of control (dose: 12.5 mg/kg/injection, schedule: Q04DX003 (oral), vehicle: water); 209 % of control (dose: 15.0 mg/kg/injection, schedule: Q02DX005 (oral), vehicle: other). Moreover, the T/C reads like this: (dose: 15.0 mg/kg/injection, schedule: Q04DX003 (ip), vehicle: water) 200 % of control; (dose: 20.0 mg/kg/injection, schedule: Q02DX005 (oral), vehicle: other) 195 % of control; (dose: 25.0 mg/kg/injection, schedule: Q04DX003 (oral), vehicle: water) 200 % of control; (dose: 30.0 mg/kg/injection, schedule: Q04DX003 (ip), vehicle: water) 218 % of control; (dose: 50.0 mg/kg/injection, schedule: Q04DX003 (oral), vehicle: water) 222 % of control; (dose: 100.0 mg/kg/injection, schedule: Q04DX003 (oral), vehicle: water) 104 % of control.

Take `Cc1ccc(C(SCC(N)C(=O)O)(c2ccc(C)cc2)c2ccc(C)cc2)cc1` (configuration not stated): the T/C is 159 % of control (dose: 65.0 mg/kg/injection, schedule: Q04DX003 (ip), vehicle: Klucel (hydroxypropylcellulose) (HPC)); 175 % of control under setting [1]; 185 % of control under setting [2]; 230 % of control and 150 % of control (dose: 264.0 mg/kg/injection, schedule: Q04DX003 (ip), vehicle: Klucel (hydroxypropylcellulose) (HPC)); 177 % of control and 190 % of control (2×) (dose: 400.0 mg/kg/injection, schedule: Q04DX003 (ip), vehicle: Klucel (hydroxypropylcellulose) (HPC)).

Regarding `CCN(CC)CCCC(C)Nc1c2ccc(Cl)cc2nc2ccc(OC)cc12` (configuration not stated), the T/C (dose: 9.37 mg/kg/injection, schedule: Q01DX009 (ip), vehicle: saline) is 86 % of control; the T/C (dose: 18.75 mg/kg/injection, schedule: Q01DX009 (ip), vehicle: saline) is 90 % of control; the T/C (dose: 37.5 mg/kg/injection, schedule: Q01DX009 (ip), vehicle: saline) is 100 % of control and 109 % of control; the T/C (dose: 75.0 mg/kg/injection, schedule: Q01DX009 (ip), vehicle: saline) is 118 % of control and 120 % of control; the T/C (dose: 75.0 mg/kg/injection, schedule: Q04DX003 (ip), vehicle: saline) is 104 % of control; the T/C (dose: 99.0 mg/kg/injection, schedule: Q04DX003 (ip), vehicle: saline) is 150 % of control. The T/C (dose: 150.0 mg/kg/injection, schedule: Q04DX003 (ip), vehicle: saline) is 172 % of control.

`O=c1c2cccc3cccc(c32)c2nc3ccccc3n12`: the T/C runs as follows: under setting [3], 100 % of control; (dose: 6.0 mg/kg/injection, schedule: Q01DX009 (ip), vehicle: saline with Tween-80) 108 % of control; (dose: 6.25 mg/kg/injection, schedule: Q04DX003 (ip), vehicle: saline with Tween-80) 87 % of control; under setting [4], 95 % of control; under setting [5], 112 % of control.

For the molecule `O=C(C[n+]1ccccc1)N/N=C/c1ccc([N+](=O)[O-])s1`, the T/C (dose: 12.5 mg/kg/injection, schedule: Q01DX009 (ip), vehicle: water) is 114 % of control; the T/C (dose: 25.0 mg/kg/injection, schedule: Q04DX003 (ip), vehicle: water) is 90 % of control; the T/C (dose: 50.0 mg/kg/injection, schedule: Q04DX003 (ip), vehicle: water) is 104 % of control.

For the molecule `CC1(C)COC(C)(C(=O)NN)OC1`, the T/C was 104 % of control (dose: 100.0 mg/kg/injection, schedule: Q04DX002 (ip), vehicle: saline); 101 % of control (dose: 200.0 mg/kg/injection, schedule: Q04DX002 (ip), vehicle: saline); 92 % of control (dose: 400.0 mg/kg/injection, schedule: Q04DX002 (ip), vehicle: saline).

As to `Oc1ccc(-c2n[nH]c3c2CCCc2ccccc2-3)cc1`, the T/C by setting is: under setting [4], 109 % of control; under setting [5], 118 % of control; (dose: 50.0 mg/kg/injection, schedule: Q04DX003 (ip), vehicle: saline with Tween-80) 113 % of control.

`O=C(O)c1cc(-c2ccc(Cl)cc2)nc2c(Cl)cccc12`: the T/C reads like this: (dose: 50.0 mg/kg/injection, schedule: Q01DX009 (ip), vehicle: Klucel (hydroxypropylcellulose) (HPC)) 100 % of control; (dose: 50.0 mg/kg/injection, schedule: Q04DX003 (ip), vehicle: Klucel (hydroxypropylcellulose) (HPC)) 91 % of control; (dose: 100.0 mg/kg/injection, schedule: Q01DX009 (ip), vehicle: Klucel (hydroxypropylcellulose) (HPC)) 100 % of control; under setting [1], 86 % of control; under setting [2], 86 % of control.

`c1c2c(cc3c1OCO3)CC1CCCN1CC2` (configuration not stated): the T/C (dose: 0.5 mg/kg/injection, schedule: Q01DX009 (ip), vehicle: saline with Tween-80) was 108 % of control; the T/C (dose: 1.0 mg/kg/injection, schedule: Q01DX009 (ip), vehicle: saline with Tween-80) is 100 % of control; the T/C under setting [3] was 108 % of control; the T/C (dose: 8.0 mg/kg/injection, schedule: Q01DX009 (ip), vehicle: saline with Tween-80) is 108 % of control.

As for `O=CN(SSN(C=O)C1CCCCC1)C1CCCCC1`, the T/C by setting is: (dose: 50.0 mg/kg/injection, schedule: Q01DX009 (ip), vehicle: saline with Tween-80) 108 % of control and 116 % of control; (dose: 100.0 mg/kg/injection, schedule: Q01DX009 (ip), vehicle: saline with Tween-80) 122 % of control.
